“Also recorded” adds a separate entry of the source.
Columns and labels:
[1] = molecular target: T1, BRAF class II mutant G469A (Homo sapiens, UniProt P15056, G469A); assay: Western blot of engineered HEK-293T cells expressing class II mutant G469A; type: cell-based; details: lentivirus expression
T1 construct: host or cells: HEK-293T, lentiviral expression

A375-NRAS^Q61K cells = assay: CellTiter-Glo growth inhibition assay, A375-NRAS^Q61K cells; type: cell-based; details: 96 hr, mean of at least n = 3
Protocol: A375-NRAS^Q61K cells (harboring BRAF homozygous V600E mutation and NRAS homozygous Q61K mutation) were purchased from ATCC. DMEM Medium (without phenol red and supplemented with L-glutamine) was purchased from Corning (Corning, NY, USA). CellTiter-Glo® 2.0 Assay was purchased from Promega (Madison, WI, USA). Cell culture flasks and 384-well microplates were acquired from VWR (Radnor, PA, USA) or Corning (Corning, NY, USA).
A375-NRAS^Q61K cell viability was determined based on quantification of ATP using CellTiter-Glo® 2.0 luminescent Assay kit, which signals the presence of metabolically-active cells. Briefly, test compound was added to 384-well plates at a top concentration of 10 μM with 14 points, half log titration in duplicates. A375-NRAS^Q61K cells were seeded into the 384-well plates in DMEM medium containing 10% FBS at a cell density of 250 cells per well. Cells treated in the absence of the test compound were the negative control, normalized to 100% viability, and cells treated in the absence of CellTiter-Glo® 2.0 were the positive control, normalized to 0% viability. A375 cells were incubated at 37° C. with 5% CO2 for 96 hr. CellTiter-Glo reagent was then added to the cells and Luminescence was acquired on EnVision™ Multilabel Reader (PerkinElmer, Santa Clara, CA, USA).

[2] = tested on: H1666 cells endogenously expressing the class III BRAF mutation G466V; assay: Cellular growth over time in H1666 cells; type: cell-based
[3] = molecular target: T2, BRAF class III mutant G466V (Homo sapiens, UniProt P15056, G466V); assay: Western blot of engineered HEK-293T cells expressing class III mutant G466V; type: cell-based; details: lentivirus expression
T2 construct: host or cells: HEK-293T, lentiviral expression
T2 sequence (P15056 whole entry G466V): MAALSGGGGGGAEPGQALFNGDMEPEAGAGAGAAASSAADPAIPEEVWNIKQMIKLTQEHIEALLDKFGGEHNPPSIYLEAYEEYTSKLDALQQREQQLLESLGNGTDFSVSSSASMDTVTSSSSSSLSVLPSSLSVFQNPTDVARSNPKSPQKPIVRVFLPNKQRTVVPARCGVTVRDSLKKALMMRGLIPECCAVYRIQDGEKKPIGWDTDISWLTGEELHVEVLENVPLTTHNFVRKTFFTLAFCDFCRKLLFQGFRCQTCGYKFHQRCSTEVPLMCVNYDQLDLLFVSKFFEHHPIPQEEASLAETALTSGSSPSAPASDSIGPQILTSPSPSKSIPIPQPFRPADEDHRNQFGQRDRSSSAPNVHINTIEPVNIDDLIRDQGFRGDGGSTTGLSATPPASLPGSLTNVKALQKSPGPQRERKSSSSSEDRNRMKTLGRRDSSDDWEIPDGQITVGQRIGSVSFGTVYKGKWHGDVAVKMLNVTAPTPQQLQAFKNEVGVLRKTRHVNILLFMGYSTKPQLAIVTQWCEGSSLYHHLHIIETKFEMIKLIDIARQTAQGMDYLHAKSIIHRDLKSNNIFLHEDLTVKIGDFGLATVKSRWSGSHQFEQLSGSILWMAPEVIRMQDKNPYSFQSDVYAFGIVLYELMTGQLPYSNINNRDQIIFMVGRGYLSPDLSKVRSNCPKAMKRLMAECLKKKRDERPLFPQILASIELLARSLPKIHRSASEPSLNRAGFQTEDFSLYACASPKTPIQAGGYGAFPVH

A375 cells = assay: A375 cell growth (GI50); type: cell-based; details: Homo sapiens, A-375, at 96 hr
BRAF V600E = BRAF V600E (Homo sapiens, UniProt P15056, V600E); assay: Western blot of BRAF V600E levels in A375 cells; type: cell-based; parameters: host or cells: A375
Chain of BRAF V600E (P15056 whole entry V600E): as the sequence (P15056 whole entry G466V) above, with V466G, V600E counted along it

[4] = molecular target: BRAF V600E, test compound and CRBN ternary complex (Homo sapiens, UniProt P15056+Q96SW2, V600E); assay: AlphaLISA ternary complex formation assay; type: binding; details: GST-BRAF V600E 16 nM, His-CRBN 64 nM
Chain of BRAF V600E, test compound and CRBN ternary complex (P15056 whole entry V600E): as the sequence (P15056 whole entry G466V) above, with V466G, V600E counted along it
Chain of BRAF V600E, test compound and CRBN ternary complex (Q96SW2 whole entry): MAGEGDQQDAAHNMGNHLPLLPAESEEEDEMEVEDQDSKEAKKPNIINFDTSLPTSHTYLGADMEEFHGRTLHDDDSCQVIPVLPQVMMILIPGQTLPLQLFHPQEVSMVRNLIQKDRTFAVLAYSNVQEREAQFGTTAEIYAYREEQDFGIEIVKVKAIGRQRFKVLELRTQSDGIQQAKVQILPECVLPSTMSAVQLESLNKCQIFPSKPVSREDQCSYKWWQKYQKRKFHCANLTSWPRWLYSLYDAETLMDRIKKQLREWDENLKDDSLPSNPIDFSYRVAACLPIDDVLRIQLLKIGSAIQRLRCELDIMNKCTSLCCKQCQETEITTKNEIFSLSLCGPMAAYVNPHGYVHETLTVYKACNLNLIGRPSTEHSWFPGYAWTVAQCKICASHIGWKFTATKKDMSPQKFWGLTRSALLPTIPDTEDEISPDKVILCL
Protocol: Formation of the ternary complex between BRAF V600E, test compound and CRBN was quantified using AlphaLISA® assay. GST-tagged BRAF V600E and His-tagged CRBN were labeled with a donor/acceptor AlphaLISA® pair, and complex formation was monitored via a change in the Alpha-signal. Signal from the control wells was used as a normalization control.
Characterization of the ternary complex formation between GST-BRAF V600E, Compound 157 and his-CRBN was carried out using an AlphaLISA® assay. Compounds were dispensed from serially diluted DMSO stock in low dead volume plates into gray 384-well AlphaPlates using acoustic technology to 1% of total reaction volume. Compounds were arranged vertically in rows A through P. Concentration series were horizontal: columns 1-11, and then duplicates in columns 12-22.
Excitation of the donor beads results in generation of singlet oxygen molecules. […]
A 10 μL mixture containing 16 nM of BRAF V600E and 64 nM of CRBN in 50 mM HEPES (pH 7.4), 200 mM NaCl, 1 mM TCEP, 0.05% Pluronic Acid, 0.1% BSA was added to the wells containing test compounds (columns 1-22) and the negative control wells (column 23). […] Plates were then read on an Envision plate reader with an appropriate AlphaLISA® filter set.

ERK phosphorylation = ERK phosphorylation (pERK) in A375 cells; type: cell-based
A375 tumors = assay: In vivo efficacy in A375 xenografts; parameters: species or system BALB/c nude mice
[5] = molecular target: T3, BRAF class III mutation G466V (Homo sapiens, UniProt P15056, G466V); assay: Western blot of H1666 cells endogenously expressing G466V; type: cell-based; details: 24 hours
T3 construct: cells endogenously expressing the Class III mutation G466V; host or cells: H1666
T3 sequence (P15056 2-766 G466V): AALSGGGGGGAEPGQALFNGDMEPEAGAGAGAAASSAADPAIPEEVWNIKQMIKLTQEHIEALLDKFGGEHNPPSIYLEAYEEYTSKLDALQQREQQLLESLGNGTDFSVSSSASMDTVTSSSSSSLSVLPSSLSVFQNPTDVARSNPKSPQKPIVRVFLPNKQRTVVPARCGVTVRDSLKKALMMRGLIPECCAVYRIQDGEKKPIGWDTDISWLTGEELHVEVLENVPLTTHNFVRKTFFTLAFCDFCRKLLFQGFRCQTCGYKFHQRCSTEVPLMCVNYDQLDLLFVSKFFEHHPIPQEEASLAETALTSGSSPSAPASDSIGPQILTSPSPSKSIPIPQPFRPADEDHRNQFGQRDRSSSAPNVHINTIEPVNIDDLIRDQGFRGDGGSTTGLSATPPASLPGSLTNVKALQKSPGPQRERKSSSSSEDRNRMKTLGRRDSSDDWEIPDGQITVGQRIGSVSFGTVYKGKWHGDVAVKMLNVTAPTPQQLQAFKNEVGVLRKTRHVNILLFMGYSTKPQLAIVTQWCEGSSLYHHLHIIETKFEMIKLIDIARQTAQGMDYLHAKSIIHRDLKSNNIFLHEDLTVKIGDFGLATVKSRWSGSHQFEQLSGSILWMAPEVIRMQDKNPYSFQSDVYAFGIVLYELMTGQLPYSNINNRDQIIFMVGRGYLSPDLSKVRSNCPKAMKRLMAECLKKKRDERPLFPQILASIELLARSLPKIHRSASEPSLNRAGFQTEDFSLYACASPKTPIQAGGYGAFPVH

T1 sequence (P15056 whole entry G469A): as the sequence (P15056 whole entry G466V) above, with V466G, G469A counted along it

SMILES: CCN(C)S(=O)(=O)Nc1ccc(F)c(Oc2ccc3ncn([C@H]4COC5(CCN(C(=O)CC6(O)CCN(c7cc8c(cc7F)c(N7CCC(=O)NC7=O)nn8C)CC6)CC5)C4)c(=O)c3c2)c1C#N [Compound 157, (3R)-3-[6-[2-cyano-3-[[ethyl(methyl)sulfamoyl]amino]-6-fluorophenoxy]-4-oxoquinazolin-3-yl]-8-[2-[1-[3-(2,4-dioxo-1,3-diazinan-1-yl)-5-fluoro-1-methylindazol-6-yl]-4-hydroxypiperidin-4-yl]acetyl]-1-oxa-8-azaspiro[4.5]decane]
- degradation of class II mutant G469A [1]: capable of degrading
- GI50 (A375-NRAS^Q61K cells): 55 nM
- cell growth inhibition ([2]; G466V): effective
- confluency ([2]; over the course of 7 days): ≤ 30%
- cell growth, in combination with trametinib ([2]; with 1 nM trametinib): failed to expand
- degradation of class III mutant G466V [3]: capable of degrading
- GI50 (A375 cells): 94 nM
- BRAF V600E levels (BRAF V600E): significantly decreased; also recorded: decrease in a dose dependent manner
- Ternary complex formation (concentration dependence) [4]: characteristic bell-shaped curve
- ERK phosphorylation by western blot (ERK phosphorylation): significantly drops off
- efficacy compared with encorafenib (A375 tumors; oral delivery): more efficacious than a clinically relevant dose of encorafenib
- tumor response (A375 tumors; oral, 10 mg/kg BID): profound tumor regressions
- phosphorylated ERK signal [5]: decrease
- reduction in BRAF signal ([5]; includes any WT BRAF): 53%

— patent US12486253B2, “Therapeutics for the degradation of mutant BRAF” (C4 THERAPEUTICS, INC., priority 2021, dated 2025)
